Reference: patent US9883997B2, “Cosmetic compositions with tricyclodecane amides” (Conopco, Inc., priority 2013, dated 2018)
Read-outs that look alike come from different tables or passages of the source.

Assays:
[1] = cited from earlier work
[2] = Precursor cosmetic compositions evaluated for crystals content, i.e. solubility of solid agent in the liquid agent (Example 29); format: physicochemical
Procedure: The following precursor cosmetic compositions were prepared and evaluated for crystals content, i.e. solubility of solid agent in the liquid agent.
The composition is heated to a temperature above the melting point of the highest melting compound, then allowed to cool to room temperature. […] In the case of end use cosmetic compositions visualization of the crystals of solid agent was done by comparing a sample with and without tricyclodecane amide and observing the formation of crystals, if any, under the optical microscope fitted with cross-polarizers at a magnification of 10× or higher.

[3] = liquid cosmetic agents, Table 2
[4] = 2-HEU (16.6%) in OMC (50%), [S]/[L] 0.3, amide (33.3%), 24 hours
[5] = 12HSA (16.6%) in OMC (50%), [S]/[L] 0.3, amide or comparator (33%), 24 hours
[6] = Cholesterol (16.6%) in OMC (50%), [S]/[L] 0.3, amide or comparator (33.3%), 24 hours
[7] = Climbazole (28.5%) in OMC (42.8%), [S]/[L] 0.7, amide (28.5%), 24 hours
[8] = Climbazole (28.5%) in Pelemol GTIS (42.8%), [S]/[L] 0.7, amide (28.5%), 24 hours
[9] = Niacinamide (9.1%) in PPG425 (54.5%), [S]/[L] 0.2, amide (36.4%), observation at 12 hours
[10] = Niacinamide (10%) in Glucam P-20 (55%), [S]/[L] 0.2, amide (35%), 24 hours
[11] = Cholesterol (18%) in retinol proprionate (50%), [S]/[L] 0.4, amide or comparator (32%), observation at 12 hours
[12] = retinyl palmitate (28.5%) in OMC (42.8%), [S]/[L] 0.7, amide or comparator (28.5%), 24 hours

## CCCCCCCCCCCCCC(=O)OC(C)C [Isopropyl myristate]
[1]; [3]
  Log Po/w: 7.25

## Oc1cc(Cl)ccc1Oc1ccc(Cl)cc1Cl [Triclosan]
[1]; solid cosmetic agents, Table 1
  Log Po/w: 5.34

## CCCCC(CC)COC(=O)C(C#N)=C(c1ccccc1)c1ccccc1 (stereo not drawn) [octocrylene]
[1]; [3]
  Log Po/w: 6.89

## Conjugated linoleic acid
[1]; [3]
  Log Po/w: >6

## NC(=O)NCCO [2-hydroxyethyl urea]
[1]; solid cosmetic agents, Table 1
  Log Po/w: −0.86
[2]; 2-HEU (24.9%) in OMC (75.1%), [S]/[L] 0.3, no tricyclodecaneamide, 24 hours
  Appearance after cooling - observation at 24 hours, except as noted: crystal + liquid

## CC(C)(C)C(=O)C(Oc1ccc(Cl)cc1)n1ccnc1 (stereo not drawn) [Climbazole]
[1]; solid cosmetic agents, Table 1
  Log Po/w: 3.49
[2]; Climbazole (10%) in Pelemol GTIS (90%), [S]/[L] 0.1, no tricyclodecaneamide, 24 hours
  Appearance after cooling - observation at 24 hours, except as noted: crystal + liquid
[2]; Climbazole (30%) in OMC (70%), [S]/[L] 0.4, no tricyclodecaneamide, 24 hours
  Appearance after cooling - observation at 24 hours, except as noted: crystal + liquid
[2]; Climbazole (40%) in PPG425 (60%), [S]/[L] 0.7, no tricyclodecaneamide, 24 hours
  Appearance after cooling - observation at 24 hours, except as noted: crystals + liquid

## NC(=O)c1cccnc1 [Niacinamide]
[1]; solid cosmetic agents, Table 1
  Log Po/w: −0.37
[2]; Niacinamide (10%) in Glucam P-20 (90%), [S]/[L] 0.1, no tricyclodecaneamide, 24 hours
  Appearance after cooling - observation at 24 hours, except as noted: crystal + liquid
[2]; Niacinamide (14.5%) in PPG425 (85.5%), [S]/[L] 0.2, no tricyclodecaneamide, observation at 12 hours
  Appearance after cooling - observation at 24 hours, except as noted: opaque solid

## O=C(N1CCCC2CCCCC21)C12CC3CC(CC(C3)C1)C2 (stereo not drawn) [Compound C10, Methanone, (decahydroquinolinyl)tricyclo[3.3.1.1^3,7]dec-1-yl-]
[2]; [4]
  Appearance after cooling - observation at 24 hours, except as noted: clear liquid
[2]; [5]
  Appearance after cooling - observation at 24 hours, except as noted: translucent gel
[2]; [6]
  Appearance after cooling - observation at 24 hours, except as noted: Clear liquid
[2]; [7]
  Appearance after cooling - observation at 24 hours, except as noted: clear liquid
[2]; [8]
  Appearance after cooling - observation at 24 hours, except as noted: clear liquid
[2]; [9]
  Appearance after cooling - observation at 24 hours, except as noted: clear liquid
[2]; [10]
  Appearance after cooling - observation at 24 hours, except as noted: clear liquid

## CC1CCCN(C(=O)C23CC4CC(CC(C4)C2)C3)C1 (stereo not drawn) [Compound C14, Methanone, (3-methyl-1-piperidinyl)tricyclo[3.3.1.1^3,7]dec-1-yl-]
[2]; [4]
  Appearance after cooling - observation at 24 hours, except as noted: clear liquid
[2]; 2-HEU (42%) in OMC (33%), [S]/[L] 1.3, amide (25%), 24 hours
  Appearance after cooling - observation at 24 hours, except as noted: crystal + liquid
[2]; [5]
  Appearance after cooling - observation at 24 hours, except as noted: translucent gel
[2]; 12HSA (16.6%) in Pelemol TISC (50%), [S]/[L] 0.3, amide (33%), 24 hours
  Appearance after cooling - observation at 24 hours, except as noted: translucent gel
[2]; Avobenzone (28.5%) in Propylene glycol (42.8%), [S]/[L] 0.7, amide (28.5%), 24 hours
  Appearance after cooling - observation at 24 hours, except as noted: Crystal + liquid
[2]; Cholesterol (10%) in conjugated linoleic acid (45%), [S]/[L] 0.2, amide (45%), 24 hours
  Appearance after cooling - observation at 24 hours, except as noted: clear liquid
[2]; [6]
  Appearance after cooling - observation at 24 hours, except as noted: Clear liquid
[2]; [11]
  Appearance after cooling - observation at 24 hours, except as noted: clear liquid
[2]; Cholesterol (35%) in OMC (32%), [S]/[L] 1.1, amide (33%), 24 hours
  Appearance after cooling - observation at 24 hours, except as noted: crystal + liquid
[2]; Cholesterol (40%) in conjugated linoleic acid (30%), [S]/[L] 1.3, amide (30%), 24 hours
  Appearance after cooling - observation at 24 hours, except as noted: crystals + liquid
[2]; Cholesterol (45%) in retinol proprionate (35%), [S]/[L] 1.3, amide (20%), observation at 12 hours
  Appearance after cooling - observation at 24 hours, except as noted: opaque solid
[2]; [7]
  Appearance after cooling - observation at 24 hours, except as noted: clear liquid
[2]; Climbazole (28.5%) in PPG425 (42.8%), [S]/[L] 0.7, amide (28.5%), 24 hours
  Appearance after cooling - observation at 24 hours, except as noted: clear liquid
[2]; [8]
  Appearance after cooling - observation at 24 hours, except as noted: clear liquid
[2]; Climbazole (45%) in PPG425 (35%), [S]/[L] 1.3, amide (20%), 24 hours
  Appearance after cooling - observation at 24 hours, except as noted: crystals + liquid
[2]; Climbazole (50%) in Pelemol GTIS (25%), [S]/[L] 2, amide (25%), 24 hours
  Appearance after cooling - observation at 24 hours, except as noted: crystal + liquid
[2]; Climbazole (55%) in OMC (22.5%), [S]/[L] 2.4, amide (22.5%), 24 hours
  Appearance after cooling - observation at 24 hours, except as noted: crystal + liquid
[2]; Methyl Paraben (40%) in PPG-425 (40%), [S]/[L] 1, amide (20%), 24 hours
  Appearance after cooling - observation at 24 hours, except as noted: clear liquid
[2]; Methyl Paraben (60%) in PPG-425 (25%), [S]/[L] 2, amide (15%), 24 hours
  Appearance after cooling - observation at 24 hours, except as noted: crystal + liquid
[2]; [9]
  Appearance after cooling - observation at 24 hours, except as noted: clear liquid
[2]; [10]
  Appearance after cooling - observation at 24 hours, except as noted: clear liquid
[2]; Niacinamide (35%) in Glucam P-20 (25%), [S]/[L] 1.4, amide (40%), 24 hours
  Appearance after cooling - observation at 24 hours, except as noted: crystal + liquid
[2]; Niacinamide (35%) in PPG425 (32.5%), [S]/[L] 1.1, amide (32.5%), observation at 12 hours
  Appearance after cooling - observation at 24 hours, except as noted: opaque solid
[2]; Salicylic acid (15%) in conjugated linoleic acid (35%), [S]/[L] .4, amide (50%), 24 hours
  Appearance after cooling - observation at 24 hours, except as noted: clear liquid
[2]; Salicylic acid (18%) in OMC (50%), [S]/[L] 0.4, amide (32%), 24 hours
  Appearance after cooling - observation at 24 hours, except as noted: clear liquid
[2]; Salicylic acid (42%) in conjugated linoleic acid (33%), [S]/[L] 1.3, amide (25%), 24 hours
  Appearance after cooling - observation at 24 hours, except as noted: opaque solid
[2]; Salicylic acid (60%) in OMC (25%), [S]/[L] 2.4, amide (15%), 24 hours
  Appearance after cooling - observation at 24 hours, except as noted: crystal + liquid
[2]; [12]
  Appearance after cooling - observation at 24 hours, except as noted: clear liquid

## CC(C)(C)CC(C)(C)NC(=O)C12CC3CC(CC(C3)C1)C2 [Compound C21, Methanone, (1,1-dimethyl-3,3-dimethylbutylaminyl) tricyclo[3.3.1.1^3,7]dec-1-yl-]
[2]; [4]
  Appearance after cooling - observation at 24 hours, except as noted: Translucent gel
[2]; Avobenzone (28%) in OMC (40%), [S]/[L] 0.7, amide (32%), 24 hours
  Appearance after cooling - observation at 24 hours, except as noted: Clear liquid
[2]; Avobenzone (45%) in OMC (27.5%), [S]/[L] 1.6, amide (27.5%), 24 hours
  Appearance after cooling - observation at 24 hours, except as noted: crystals + liquid
[2]; [6]
  Appearance after cooling - observation at 24 hours, except as noted: Translucent gel
[2]; [7]
  Appearance after cooling - observation at 24 hours, except as noted: clear liquid
[2]; [8]
  Appearance after cooling - observation at 24 hours, except as noted: clear liquid
[2]; [10]
  Appearance after cooling - observation at 24 hours, except as noted: clear liquid

## CC(C)CCCCCCCCCCCCCCC(=O)OC(C)C [isopropyl isostearate]
[1]; [3]
  Log Po/w: 9.14

## CCCCC(CC)COC(=O)C=Cc1ccc(OC)cc1 (stereo not drawn) [Octylmethoxycinnamate]
[1]; [3]
  Log Po/w: 5.92

## CCCCCCCCCCCCCCCCCC(N)=O [octadecanamide, reference compound]
[2]; [5]
  Appearance after cooling - observation at 24 hours, except as noted: opaque solid
[2]; [6]
  Appearance after cooling - observation at 24 hours, except as noted: crystal + liquid
[2]; [11]
  Appearance after cooling - observation at 24 hours, except as noted: opaque solid
[2]; Climbazole (16.6%) in OMC (50%), [S]/[L] 0.7, straight chain comparator (33.3%), 24 hours
  Appearance after cooling - observation at 24 hours, except as noted: crystal + liquid
[2]; [12]
  Appearance after cooling - observation at 24 hours, except as noted: crystal + liquid

## CCCCCCCCCCCCCC(=O)NC1CCCC(C)C1 (stereo not drawn) [tetradecanoic acid (3 methyl-cyclohexyl)-amide, reference compound]
[2]; Avobenzone (45%) in OMC (27.5%), [S]/[L] 2, straight chain comparator (27.5%), 24 hours
  Appearance after cooling - observation at 24 hours, except as noted: crystals + liquid

## O=C(O)CO [Glycolic acid]
[1]; solid cosmetic agents, Table 1
  Log Po/w: −1.2

## NC(=O)c1ccccc1C(N)=O [phthalamide, reference compound]
[2]; [5]
  Appearance after cooling - observation at 24 hours, except as noted: opaque solid

## CC(O)CO (stereo not drawn) [Propylene glycol]
[1]; liquid agent named in Table 3
  Log P: P~−1.3)
